From US20050250801A1, “Method of treating cancer with azaspirane compositions” (priority 2003, published 2005)
Like-named read-outs stand apart in the source and are kept apart here.

Assays:
Test in all cases: NCI in vitro SRB assay, Renal Cancer
Type in all cases: cell-based
SN12C = conditions: Log10 conc -8.0 Moles/L
Method: (§1) An in vitro assay which tested the ability of N,N,-diethyl-8,8-dipropyl-2-azaspiro[4,5]decane-2-propanamine dimaleate (Compound 1) to inhibit the growth of known cancer cell lines was performed by the National Cancer Institute in accordance with standard procedures. See: Lin, Z. X., Hoult, J. R., and Raman, A. Sulphorhodamine B assay for measuring proliferation of a pigmented melanocyte cell line and its application to the evaluation of crude drugs used in the treatment of vitiligo. J Ethnopharmacol. 66: 141-150, 1999. Briefly, selected tumor cell lines were cultured in media containing five different concentrations of Compound 1. After 48 hours of continuous exposure, a sulforhodamine B (SRB) assay was used to estimate cell viability or growth via optical measurements.
(§2) From the measurements, the following values were determined: 1) the concentration of Compound 1 at which a tumor cell growth inhibition of 50% (relative to control) occurs (GI50), 2) the concentration of Compound 1 at which no growth occurs (total growth inhibition, TGI), and 3) the concentration of Compound 1 at which the […] (LC 50). […] FIG. 6 illustrates, graphically, tumor cell growth as a function of Compound 1 concentration of the scanned tumor cell lines.

RXF 393 = conditions: for CC50 / GI50: Homo sapiens
Method: as §1, §2

TK-10 = conditions: for CC50 / GI50: Homo sapiens
Method: as §1, §2

CAKI-1 = conditions: for CC50 / GI50: Homo sapiens
Method: as §1, §2

ACHN = conditions: for GI50: Homo sapiens
Method: as §1, §2

[1] = RXF 393, Log10 conc -4.0 Moles/L
[2] = RXF 393, Log10 conc -5.0 Moles/L
[3] = RXF 393, Log10 conc -6.0 Moles/L
[4] = RXF 393, Log10 conc -7.0 Moles/L
[5] = RXF 393, Log10 conc -8.0 Moles/L
[6] = CAKI-1, Log10 conc -4.0 Moles/L
[7] = CAKI-1, Log10 conc -5.0 Moles/L
[8] = CAKI-1, Log10 conc -6.0 Moles/L
[9] = CAKI-1, Log10 conc -7.0 Moles/L
[10] = CAKI-1, Log10 conc -8.0 Moles/L

**Q.** For `CCCC1(CCC)CCC2(CCN(CCCN(CC)CC)C2)CC1.O=C(O)/C=C\C(=O)O.O=C(O)/C=C\C(=O)O` [Compound 1, N,N,-diethyl-8,8-dipropyl-2-azaspiro[4,5]decane-2-propanamine dimaleate], which “Percent Growth” value (SN12C) is on record?
**A.** 76%

**Q.** What about the CC50 (RXF 393; RXF 393, read-out: LC50) of the same molecule?
**A.** 7100 nM

**Q.** And the CC50 (RXF 393; RXF 393, read-out: Log10 LC50 (converted))?
**A.** 7080 nM

**Q.** And the GI50 (RXF 393; RXF 393, read-out: GI50)?
**A.** 1640 nM

**Q.** What about the GI50 (RXF 393; RXF 393, read-out: Log10 GI50 (converted)) of the same molecule?
**A.** 1620 nM

**Q.** And the “Log10 TGI” value (RXF 393; RXF 393)?
**A.** −5.47

**Q.** What about the TGI (RXF 393; RXF 393) of the same molecule?
**A.** 3410 nM

**Q.** What about the “Mean Optical Densities” value (RXF 393; [1]) of the same molecule?
**A.** 0.083

**Q.** And the “Percent Growth” value (RXF 393; [1])?
**A.** −74%

**Q.** What about the “Mean Optical Densities” value (RXF 393; [2]) of the same molecule?
**A.** 0.086

**Q.** What about the “Percent Growth” value (RXF 393; [2]) of the same molecule?
**A.** −73%

**Q.** What about the “Mean Optical Densities” value (RXF 393; [3]) of the same molecule?
**A.** 0.943

**Q.** What about the “Percent Growth” value (RXF 393; [3]) of the same molecule?
**A.** 84%

**Q.** What about the “Mean Optical Densities” value (RXF 393; [4]) of the same molecule?
**A.** 1.028

**Q.** And the “Percent Growth” value (RXF 393; [4])?
**A.** 95%

**Q.** What about the “Mean Optical Densities” value (RXF 393; [5]) of the same molecule?
**A.** 1.017

**Q.** And the “Percent Growth” value (RXF 393; [5])?
**A.** 94%

**Q.** What about the CC50 (TK-10; TK-10, read-out: LC50) of the same molecule?
**A.** 5520 nM

**Q.** What about the CC50 (TK-10; TK-10, read-out: Log10 LC50 (converted)) of the same molecule?
**A.** 5500 nM

**Q.** And the GI50 (TK-10; TK-10, read-out: GI50)?
**A.** 1270 nM

**Q.** And the GI50 (TK-10; TK-10, read-out: Log10 GI50 (converted))?
**A.** 1260 nM

**Q.** And the “Log10 TGI” value (TK-10; TK-10)?
**A.** −5.58

**Q.** What about the TGI (TK-10; TK-10) of the same molecule?
**A.** 2650 nM

**Q.** What about the “Mean Optical Densities” value (TK-10; TK-10, Log10 conc -4.0 Moles/L) of the same molecule?
**A.** 0.101

**Q.** And the “Percent Growth” value (TK-10; TK-10, Log10 conc -4.0 Moles/L)?
**A.** −89%

**Q.** And the “Mean Optical Densities” value (TK-10; TK-10, Log10 conc -5.0 Moles/L)?
**A.** 0.087

**Q.** What about the “Percent Growth” value (TK-10; TK-10, Log10 conc -5.0 Moles/L) of the same molecule?
**A.** −90%

**Q.** And the “Mean Optical Densities” value (TK-10; TK-10, Log10 conc -6.0 Moles/L)?
**A.** 1.283

**Q.** And the “Percent Growth” value (TK-10; TK-10, Log10 conc -6.0 Moles/L)?
**A.** 66%

**Q.** And the “Mean Optical Densities” value (TK-10; TK-10, Log10 conc -7.0 Moles/L)?
**A.** 1.389

**Q.** What about the “Percent Growth” value (TK-10; TK-10, Log10 conc -7.0 Moles/L) of the same molecule?
**A.** 85%

**Q.** And the “Mean Optical Densities” value (TK-10; TK-10, Log10 conc -8.0 Moles/L)?
**A.** 1.449

**Q.** What about the “Percent Growth” value (TK-10; TK-10, Log10 conc -8.0 Moles/L) of the same molecule?
**A.** 96%

**Q.** And the “Log10 TGI” value (CAKI-1; CAKI-1)?
**A.** −5.49

**Q.** What about the TGI (CAKI-1; CAKI-1) of the same molecule?
**A.** 3270 nM

**Q.** And the “Mean Optical Densities” value (CAKI-1; [6])?
**A.** 0.136

**Q.** What about the “Percent Growth” value (CAKI-1; [6]) of the same molecule?
**A.** −83%

**Q.** What about the “Mean Optical Densities” value (CAKI-1; [7]) of the same molecule?
**A.** 0.150

**Q.** And the “Percent Growth” value (CAKI-1; [7])?
**A.** −81%

**Q.** And the “Mean Optical Densities” value (CAKI-1; [8])?
**A.** 1.691

**Q.** And the “Percent Growth” value (CAKI-1; [8])?
**A.** 86%

**Q.** What about the “Mean Optical Densities” value (CAKI-1; [9]) of the same molecule?
**A.** 1.607

**Q.** What about the “Percent Growth” value (CAKI-1; [9]) of the same molecule?
**A.** 78%

**Q.** What about the “Mean Optical Densities” value (CAKI-1; [10]) of the same molecule?
**A.** 1.646

**Q.** And the “Percent Growth” value (CAKI-1; [10])?
**A.** 82%

**Q.** And the CC50 (CAKI-1; CAKI-1, read-out: LC50)?
**A.** 6510 nM

**Q.** And the CC50 (CAKI-1; CAKI-1, read-out: Log10 LC50 (converted))?
**A.** 6460 nM

**Q.** What about the GI50 (CAKI-1; CAKI-1, read-out: GI50) of the same molecule?
**A.** 1650 nM

**Q.** And the GI50 (CAKI-1; CAKI-1, read-out: Log10 GI50 (converted))?
**A.** 1660 nM

**Q.** What about the “Log10 TGI” value (ACHN) of the same molecule?
**A.** −5.55

**Q.** And the TGI (ACHN)?
**A.** 2810 nM

**Q.** What about the GI50 (ACHN; read-out: GI50) of the same molecule?
**A.** 1490 nM

**Q.** And the GI50 (ACHN; read-out: Log10 GI50 (converted))?
**A.** 1480 nM

**Q.** What about the “Mean Optical Densities” value (ACHN; Log10 conc -4.0 Moles/L) of the same molecule?
**A.** −0.041

**Q.** What about the “Percent Growth” value (ACHN; Log10 conc -4.0 Moles/L) of the same molecule?
**A.** −100%

**Q.** What about the “Mean Optical Densities” value (ACHN; Log10 conc -5.0 Moles/L) of the same molecule?
**A.** −0.031

**Q.** What about the “Percent Growth” value (ACHN; Log10 conc -5.0 Moles/L) of the same molecule?
**A.** −100%

**Q.** And the “Mean Optical Densities” value (ACHN; Log10 conc -6.0 Moles/L)?
**A.** 0.705

**Q.** What about the “Percent Growth” value (ACHN; Log10 conc -6.0 Moles/L) of the same molecule?
**A.** 81%

**Q.** What about the “Mean Optical Densities” value (ACHN; Log10 conc -7.0 Moles/L) of the same molecule?
**A.** 0.711

**Q.** And the “Percent Growth” value (ACHN; Log10 conc -7.0 Moles/L)?
**A.** 83%

**Q.** What about the “Mean Optical Densities” value (ACHN; Log10 conc -8.0 Moles/L) of the same molecule?
**A.** 0.721

**Q.** And the “Percent Growth” value (ACHN; Log10 conc -8.0 Moles/L)?
**A.** 85%
